Data on two molecules can be found in patent publication US20150150879A2, “Compositions for Treatment of Cystic Fibrosis and Other Chronic Diseases” (Vertex Pharmaceuticals Incorporated, priority 2010, published 2015).

This assay addresses T1, ΔF508-CFTR (Homo sapiens, UniProt P13569, DEL508-508).
T1 construct: expressed in transfected cells
In words: Membrane potential optical (FRET/VIPR) assay, identification of potentiator compounds, NIH3T3 cells stably expressing ΔF508-CFTR. It is filed as cell-based. As to conditions: Table II.A-4, assay not given; for EC50: modulators of ATP binding cassette transporters. The text has this: I) Membrane Potential Optical Methods for Assaying ΔF508-CFTR Modulation Properties of Compounds
The optical membrane potential assay utilized voltage-sensitive FRET sensors described by Gonzalez and Tsien (See, Gonzalez, J. E. and R. Y. Tsien (1995) “Voltage sensing by fluorescence resonance energy transfer in single cells” Biophys J 69(4): 1272-80, and Gonzalez, J. E. and R. Y. Tsien (1997) “Improved indicators of cell membrane potential that use fluorescence resonance energy transfer” Chem Biol 4(4): 269-77) in combination with instrumentation for measuring fluorescence changes such as the Voltage/Ion Probe Reader (VIPR) (See, Gonzalez, J. E., K. Oades, et al. (1999) “Cell-based assays and instrumentation for screening ion-channel targets” Drug Discov Today 4(9): 431-439).
These voltage sensitive assays are based on the change in fluorescence resonant energy transfer (FRET) between the membrane-soluble, voltage-sensitive dye, DiSBAC2(3), and a fluorescent phospholipid, CC2-DMPE, which is attached to the outer leaflet of the plasma membrane and acts as a FRET donor. Changes in membrane potential (Vm) cause the negatively charged DiSBAC2(3) to redistribute across the plasma membrane and the amount of energy transfer from CC2-DMPE changes accordingly. The changes in fluorescence emission were monitored using VIPR™ II, which is an integrated liquid handler and fluorescent detector designed to conduct cell-based screens in 96- or 384-well microtiter plates.
Identification of Potentiator Compounds
To identify potentiators of ΔF508-CFTR, a double-addition HTS assay format was developed. During the first addition, a Cl^−-free medium with or without test compound was added to each well. After 22 sec, a second addition of Cl^−-free medium containing 2-10 μM forskolin was added to activate ΔF508-CFTR. The extracellular Cl^− concentration following both additions was 28 mM, which promoted Cl^− efflux in response to ΔF508-CFTR activation and the resulting membrane depolarization was optically monitored using the FRET-based voltage-sensor dyes. Solutions […]

A value given as a limit tells only on which side of the number the result lay.

For orientation: EC50 means the concentration giving half of the maximal effect.

T1 sequence (P13569 with tags, fused parts or gaps DEL508-508): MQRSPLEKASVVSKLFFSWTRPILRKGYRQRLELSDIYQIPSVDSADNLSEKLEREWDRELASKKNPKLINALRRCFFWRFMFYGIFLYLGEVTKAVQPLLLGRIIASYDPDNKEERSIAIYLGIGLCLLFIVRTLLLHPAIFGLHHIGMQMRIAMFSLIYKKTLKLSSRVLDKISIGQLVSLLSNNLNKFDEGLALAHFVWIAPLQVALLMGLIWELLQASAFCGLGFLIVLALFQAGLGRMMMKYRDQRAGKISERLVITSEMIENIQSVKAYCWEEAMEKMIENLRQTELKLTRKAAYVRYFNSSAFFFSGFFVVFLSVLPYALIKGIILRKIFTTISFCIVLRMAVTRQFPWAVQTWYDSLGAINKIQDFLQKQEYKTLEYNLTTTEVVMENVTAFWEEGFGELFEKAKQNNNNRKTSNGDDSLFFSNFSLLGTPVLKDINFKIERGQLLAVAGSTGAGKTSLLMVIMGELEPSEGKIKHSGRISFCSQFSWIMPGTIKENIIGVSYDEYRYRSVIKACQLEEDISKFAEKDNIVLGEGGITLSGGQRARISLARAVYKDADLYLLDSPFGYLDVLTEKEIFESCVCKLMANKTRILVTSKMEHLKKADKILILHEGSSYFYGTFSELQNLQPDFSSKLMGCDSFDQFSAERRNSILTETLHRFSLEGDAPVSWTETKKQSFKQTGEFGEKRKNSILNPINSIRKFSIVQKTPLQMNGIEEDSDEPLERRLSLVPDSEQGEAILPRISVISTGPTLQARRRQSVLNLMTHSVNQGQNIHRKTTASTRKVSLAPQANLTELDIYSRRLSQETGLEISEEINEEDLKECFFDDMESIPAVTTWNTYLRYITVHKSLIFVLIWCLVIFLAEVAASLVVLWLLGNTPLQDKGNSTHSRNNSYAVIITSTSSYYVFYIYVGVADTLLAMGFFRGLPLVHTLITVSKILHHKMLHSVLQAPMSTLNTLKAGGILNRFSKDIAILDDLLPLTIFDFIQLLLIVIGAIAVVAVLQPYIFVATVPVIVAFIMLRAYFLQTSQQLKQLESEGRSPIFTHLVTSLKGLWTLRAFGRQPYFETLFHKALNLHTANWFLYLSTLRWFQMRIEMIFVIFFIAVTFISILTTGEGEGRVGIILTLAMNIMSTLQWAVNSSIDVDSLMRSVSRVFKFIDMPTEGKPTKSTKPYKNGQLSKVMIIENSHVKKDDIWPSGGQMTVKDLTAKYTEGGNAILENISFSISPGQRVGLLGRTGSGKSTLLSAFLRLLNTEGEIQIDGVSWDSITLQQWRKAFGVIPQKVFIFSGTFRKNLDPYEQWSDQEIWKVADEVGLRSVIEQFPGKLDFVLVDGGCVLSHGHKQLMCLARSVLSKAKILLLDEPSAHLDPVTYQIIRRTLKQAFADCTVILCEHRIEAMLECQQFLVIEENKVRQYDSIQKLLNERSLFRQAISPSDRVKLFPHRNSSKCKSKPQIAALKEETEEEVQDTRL

For `CC(C)(C)c1cc(C(C)(C)C)c(NC(=O)c2c[nH]c3cccc(O)c3c2=O)cc1O` [Compound 464, 5-hydroxy-N-(5-hydroxy-2,4-ditert-butyl-phenyl)-4-oxo-1H-quinoline-3-carboxamide], the EC50 was under 10 µM. Further, the “% Activity (relative efficacy)” value (relative efficacy) was “++ (“++” means between 25% to 100%)”.

`Cc1cc2nc(NC(=O)c3c[nH]c4ccccc4c3=O)[nH]c2cc1C` [compound 422, N-(5,6-dimethyl-3H-benzoimidazol-2-yl)-4-oxo-1H-quinoline-3-carboxamide]: the EC50 is under 10 µM.
